Laboratory results taken from patent EP0597303A2, “Cephalosporin derivatives” (priority 1992, dated 1994).
Structures can show the parent of a compound that is named as a salt. Where two headings read alike, the source gives them in different places.

How the values were obtained:
Assay in all cases: MIC, Agar (Mueller Hinton) Dilution Method
Type in all cases: cell-based
Enter. cloacae 4946 = conditions: Enterobacter cloacae, Gram Negative
Text: (§1) The in vitro activity of the compounds of formula I of the present invention as measured by the Minimum Inhibitory Concentration (MIC) in micrograms/ml utilizing the Agar (Mueller Hinton) Dilution Method against a variety of Gram-positive and Gram-negative organisms, is set forth in Table 1.

K. oxytoca 1082EN = conditions: Klebsiella oxytoca
Text: as §1

Prov. rettgeri ATCC 9250 = conditions: Providencia rettgeri, ATCC9250, Gram Negative
Text: as §1

Serratia marcescens SM = conditions: Serratia marcescens SM; constitutive ß-lactamase producer; Gram Negative; read-out: MIC
Text: as §1

Ser. sp. 101 = conditions: Ser. sp. 101; Gram Negative; read-out: MIC
Text: as §1

Staph. pyogenes 4 = conditions: Staph. pyogenes 4; Gram Positive and Others; read-out: MIC
Text: as §1

Ps. aeruginosa 1973 E = conditions: Pseudomonas aeruginosa, Gram Negative
Text: as §1

E. coli DC-0 = conditions: Escherichia coli, DC0, Gram Negative
Text: as §1

E. coli 1527E = conditions: Escherichia coli, Gram Negative
Text: as §1

Staph. aureus Evans = conditions: Staphylococcus aureus
Text: as §1

Str. pyogenes 503-782 = conditions: Streptococcus pyogenes, 503782; Str. pyogenes 503-782; Gram Positive and Others; read-out: MIC
Text: as §1

Staph. aureus 95 = conditions: Staphylococcus aureus; Staph. aureus 95; Gram Positive and Others; read-out: MIC
Text: as §1

Enter. cloacae 5699 = conditions: Enterobacter cloacae, Gram Negative
Text: as §1

Ps. aeruginosa B = conditions: Pseudomonas aeruginosa, Gram Negative
Text: as §1

Micrococcus luteus PCI = tested on: Micrococcus luteus PCI
Text: as §1

Cit. freundii EL-1408 = conditions: Citrobacter freundii, EL1408; Cit. freundii EL-1408; Gram Negative; read-out: MIC
Text: as §1

Klebsiella pneumoniae A = conditions: Gram Negative
Text: as §1

E. coli DC-2 = conditions: Escherichia coli, DC2, Gram Negative
Text: as §1

Ps. aeruginosa 18SH = conditions: Pseudomonas aeruginosa, constitutive ß-lactamase producer, Gram Negative
Text: as §1

Ps. cepacia 1973 B = conditions: Burkholderia cepacia, Gram Negative
Text: as §1

E. coli 2008 E = conditions: Escherichia coli; E. coli 2008 E; Gram Negative; read-out: MIC
Text: as §1

K. pneumoniae 369 = conditions: Klebsiella pneumoniae; K. pneumoniae 369; Gram Negative; read-out: MIC
Text: as §1

[1] = tested on: Pseudomonas aeruginosa 5712; conditions: Gram Negative
Text: as §1

E. coli 1894 E = conditions: Escherichia coli
Text: as §1

E. coli TEM-1a = conditions: Escherichia coli, TEM1A
Text: as §1

E. coli Leo HA2 = conditions: Escherichia coli, LEOHA2, Gram Negative
Text: as §1

E. coli 94 = conditions: Escherichia coli, Gram Negative
Text: as §1

[2] = tested on: Proteus vulgaris ATCC 6380; conditions: ATCC6380; Proteus vulgaris ATCC 6380; constitutive ß-lactamase producer; Gram Negative; read-out: MIC
Text: as §1

A. calcoaceticus PCI-3 = conditions: Acinetobacter calcoaceticus, PCI3, Gram Negative
Text: as §1

Ps. aeruginosa K799/61 = conditions: Pseudomonas aeruginosa
Text: as §1

Candida albicans 155 = conditions: Gram Positive and Others
Text: as §1

Bacillus megaterium 164 = conditions: Priestia megaterium; Bacillus megaterium 164; Gram Positive and Others; read-out: MIC
Text: as §1

Enter. cloacae 4192-2 = conditions: Enterobacter cloacae, 41922
Text: as §1

[3] = tested on: Citrobacter freundii BS-16; conditions: BS16; Citrobacter freundii BS-16; constitutive ß-lactamase producer; Gram Negative; read-out: MIC
Text: as §1

Ent. hirae ATCC 8043 = conditions: Enterococcus hirae, ATCC8043, Gram Positive and Others
Text: as §1

E. coli 2721B = conditions: Escherichia coli; E. coli 2721B; Gram Negative; read-out: MIC
Text: as §1

Enterobacter cloacae P99 = tested on: Enterobacter cloacae P99
Text: as §1

[4] = tested on: Staphylococcus aureus Smith; conditions: Staphylococcus aureus Smith; Gram Positive and Others; read-out: MIC
Text: as §1

Ps. aeruginosa 56 = conditions: Pseudomonas aeruginosa, Gram Negative
Text: as §1

Ps. aeruginosa 8780 = conditions: Pseudomonas aeruginosa, Gram Negative
Text: as §1

Row | Compound | MIC (Enter. cloacae 4946) [mg/L] | MIC (Prov. rettgeri ATCC 9250) [mg/L] | MIC (Serratia marcescens SM) [mg/L] | MIC (Ser. sp. 101) [mg/L] | MIC (Staph. pyogenes 4) [mg/L] | MIC (Ps. aeruginosa 1973 E) [mg/L] | MIC (E. coli DC-0) [mg/L] | MIC (E. coli 1527E) [mg/L] | MIC (Str. pyogenes 503-782) [mg/L] | MIC (Staph. aureus 95) [mg/L] | MIC (Enter. cloacae 5699) [mg/L] | MIC (Ps. aeruginosa B) [mg/L] | MIC (Cit. freundii EL-1408) [mg/L] | MIC (Klebsiella pneumoniae A) [mg/L] | MIC (E. coli DC-2) [mg/L] | MIC (Ps. aeruginosa 18SH) [mg/L] | MIC (Ps. cepacia 1973 B) [mg/L] | MIC (E. coli 2008 E) [mg/L] | MIC (K. pneumoniae 369) [mg/L] | MIC [1] [mg/L] | also measured
1 | O=C(Cc1cccs1)N[C@@H]1C(=O)N2C(C(=O)O)=C(COC(=O)N3CCN(c4c(F)cc5c(=O)c(C(=O)O)cn(C6CC6)c5c4F)CC3)CS[C@H]12 [Formula Ia, [6R,7R]-3-[[[[4-(3-Carboxy-1-cyclopropyl-6,8-difluoro-1,4-dihydro-4-oxo-7-quinolinyl)-1-piperazinyl]carbonyl]-oxy]-methyl]-8-oxo-7-[(2-thienylacetyl)amino]-5-thia-1-azabicyclo-[4.2.0]oct-2-ene-2-carboxylic acid] | 0.0625 | 0.25 | 0.5 | 0.5 | ≤ 0.0156 | 1 | 2 | ≤ 0.0156 | ≤ 0.0156 | 0.5 | 0.125 | 0.5 | 0.25 | 0.25 | 0.25 | 1 | 4 | 0.0313 | 0.5 | 2 | MIC (K. oxytoca 1082EN; 1082EN): 0.0625 mg/L; MIC (Staph. aureus Evans; Staph. aureus Evans, Gram Positive and Others, read-out: MIC): 0.5 mg/L; MIC (Micrococcus luteus PCI; Micrococcus luteus PCI, Gram Positive and Others, read-out: MIC): ≤ 0.0156 mg/L; MIC (E. coli 1894 E; 1894E): 0.0625 mg/L; MIC (E. coli TEM-1a): 0.0625 mg/L; MIC (E. coli Leo HA2): ≤ 0.0156 mg/L; MIC (E. coli 94): 0.0625 mg/L; MIC [2]: 0.125 mg/L; MIC (A. calcoaceticus PCI-3): 0.25 mg/L; MIC (Ps. aeruginosa K799/61; Ps. aeruginosa K799/61, Gram Negative, read-out: MIC): 2 mg/L; MIC (Candida albicans 155): > 128 mg/L; MIC (Bacillus megaterium 164): 0.125 mg/L; MIC (Enter. cloacae 4192-2): 0.0625 mg/L; MIC [3]: 0.0313 mg/L; MIC (Ent. hirae ATCC 8043): 2 mg/L; MIC (E. coli 2721B): 0.0313 mg/L; MIC (Enterobacter cloacae P99): ≤ 0.0156 mg/L; MIC [4]: 0.25 mg/L; MIC (Ps. aeruginosa 56): 1 mg/L
2 | N#CCC(=O)N[C@@H]1C(=O)N2C(C(=O)O)=C(COC(=O)NC3CCN(c4c(F)cc5c(=O)c(C(=O)O)cn(C6CC6)c5c4F)C3)CS[C@H]12 (stereo partly shown) [Formula Ib, [6R,7R]-3-[[[[[1-(3-Carboxy-1-cyclopropyl-6,8-difluoro-1,4-dihydro-4-oxo-7-quinolinyl-3-[R,S]-pyrrolidinyl]-amino]carbonyl]oxy]methyl]-7-[(cyanoacetyl)amino]-8-oxo-5-thia-1-azabicyclo[4.2.0]oct-2-ene-2-carboxyiic acid monosodium salt] | 0.125 | 0.25 | 0.25 | 0.25 | 0.0625 | 0.5 | 1 | 0.0625 | 0.0625 | 0.25 | 0.25 | 0.25 | 0.25 | 0.25 | 0.25 | 0.5 | 2 | 0.0625 | 0.25 | 2 | MIC (K. oxytoca 1082EN; K. oxytoca 1082EN, Gram Negative, read-out: MIC): 0.0625 mg/L; MIC (Staph. aureus Evans): 0.125 mg/L; MIC (Micrococcus luteus PCI; Micrococcus luteus): 0.125 mg/L; MIC (E. coli 1894 E; E. coli 1894 E, Gram Negative, read-out: MIC): 0.0625 mg/L; MIC (E. coli TEM-1a): 0.125 mg/L; MIC (E. coli Leo HA2): 0.0156 mg/L; MIC (E. coli 94): 0.125 mg/L; MIC [2]: 0.25 mg/L; MIC (A. calcoaceticus PCI-3): 0.25 mg/L; MIC (Ps. aeruginosa K799/61; K799/61): 0.125 mg/L; MIC (Candida albicans 155): > 128 mg/L; MIC (Bacillus megaterium 164): 0.0625 mg/L; MIC (Enter. cloacae 4192-2; Enter. cloacae 4192-2, Gram Negative, read-out: MIC): 0.0625 mg/L; MIC [3]: 0.0625 mg/L; MIC (Ent. hirae ATCC 8043): 2 mg/L; MIC (E. coli 2721B): 0.0625 mg/L; MIC (Enterobacter cloacae P99): 0.0313 mg/L; MIC [4]: 0.25 mg/L; MIC (Ps. aeruginosa 56): 0.5 mg/L; MIC (Ps. aeruginosa 8780): 1 mg/L
